{
  "source": "patent US20060269978A1",
  "about": "“Method and device for monitoring platelet function” (priority 2005, published 2006)",
  "test_system": "platelet function",
  "assay": "Platelet Reactivity Test (PRT) on fingerprick whole blood of volunteers before and after taking aspirin",
  "format": "in vivo",
  "conditions": "human volunteers after taking aspirin, single-passageway cartridge with spring, most volunteers",
  "experimental": "The PRT test is used to activate platelet gel formations using a small (20 microliter) whole blood sample to help identify proper platelet function in the absence of platelet drug therapy and to identify inhibited platelet function in the presence of platelet drug therapy. The test is performed by running a small quantity of blood through a channel restriction that will induce the formation of platelet gels and trap them in a focused area similar to the way platelets are activated and focused in the body.\nIn use, the cartridge is secured in instrument 400 and preheated for three to five minutes at 33C. The cartridge is then removed from the instrument 400 and 40 μl of blood previously taken from a subject by a pinprick is placed in capillary tube 370, which is already bonded to the capillary tube port 200. The cartridge 150 is then placed back in the instrument 400. The instrument 400 is maintained at 33C. In a preferred embodiment, the cartridge 150 has a bar code that is read by the instrument 400. The instrument 400 will reject the cartridge 150 if the cartridge has been out of the instrument for more than two minutes after the preheating step.\n[…] A gel forms and the pumps 350, 351 operate until an end point is reached. […]",
  "data": [
    {"smiles": "CC(=O)Oc1ccccc1C(=O)O", "note": "[aspirin]", "values": [
      {"measurement": "PRT (platelet reactivity time)", "result": "greater than 150 seconds"}
    ]}
  ]
}
